From PubChem BioAssay (NCI) come the findings set out here.

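Values below derive from 48-hour exposures of cells grown in 96-well plates, with endpoints linearly interpolated between the two concentrations bracketing the appropriate inhibition level. Definition used: TGI = concentration required for complete inhibition of growth.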

What all share (experiment): NCI tumour cell line growth inhibition, 48 h
Assay [1] deals with DLD-1 colon.
Assay [2] concerns DMS 114 small cell lung.
The subject of assay [3] is HCT-116 colon.
Assay [4] relates to HOP-18 NSCLC.
Assay [5] deals with K-562 leukemia.
In assay [6] the test system is KM12 colon.
Assay [7] relates to MCF7 breast.
Assay [8] relates to MOLT-4 leukemia.
The subject of assay [9] is P388 leukemia.
Assay [10] concerns P388/ADR leukemia.
Assay [11] deals with RXF 393 renal.
The test system of assay [12] is SF-268 CNS.
Assay [13] relates to SN12K1 renal.
Assay [14] has as its system SW-620 colon.
Assay [15] concerns U251 CNS.
The test system of assay [16] is UO-31 renal.
For assay [17], the system named is ACHN renal.
For assay [18], the system named is LXFL 529 NSCLC.
Assay [19] deals with M14 melanoma.
Assay [20] deals with TK-10 renal.

In the case of `O=C(O)CNS(=O)(=O)c1ccc(NC(=O)Nc2ccccc2)cc1`, the TGI in assay [1], in [2], in assay [3], in assay [4], in assay [5] and in assay [6] was greater than 100 µM throughout. Moreover, the TGI in assay [7], in assay [8], in assay [9], in assay [10], in [11] and in assay [12] was greater than 100 µM each time. Moreover, the TGI in [13], in assay [14], in [15] and in [16] was greater than 100 µM in each case.

`CC(C)(O)[C@H](CCO)O[Si](c1ccccc1)(c1ccccc1)C(C)(C)C`: the TGI in assay [17] is 19.7 µM; in assay [1], 21 µM; in assay [3], 17.6 µM; in assay [4] it was 11.1 µM; in assay [5] it was 23.7 µM; in assay [6], 25.5 µM. Further, the TGI stood at 23.8 µM in [18]; 25.8 µM in assay [19]; 20 µM in assay [8]; 26.7 µM in assay [12]; 26.8 µM in assay [14]; 25.9 µM in assay [20]. The TGI in assay [15] was 24.9 µM; in assay [16] it was 23 µM.

Turning to `COc1cc2c(cc1OC)C(Cc1c3ccccc3cc3ccccc13)N(C)CC2` (stereo not drawn), the TGI was greater than 100 µM in [1]; 40.3 µM in [3]; 50.4 µM in [4]; 39.3 µM in assay [5]; 35.9 µM in assay [6]; 33.7 µM in [7]. In addition, the TGI was 58.3 µM in [8]; 47.6 µM in assay [9]; 35 µM in assay [10]; 32.5 µM in assay [11]; greater than 100 µM in [12]; 30.3 µM in assay [13]. Further, the figures for the TGI in assay [14], in assay [15] and in assay [16] were greater than 71.5 µM, 35.6 µM and 57.4 µM, respectively.

For the molecule `CCNCCCCNCC`, the TGI in assay [1] was greater than 3750 µM; in assay [2], greater than 3750 µM; in assay [3], greater than 3750 µM; in assay [4], greater than 37.5 µM; in assay [5], greater than 3750 µM; in [6], greater than 3750 µM. The TGI in assay [7], in assay [8], in [9], in assay [10], in [11] and in [12] was greater than 3750 µM throughout. In addition, the TGI in assay [13] is greater than 3750 µM; in assay [14], greater than 3750 µM; in assay [15], greater than 3750 µM; in [16], greater than 3400 µM.

`CC1=C2C(O)C(C(C)C(=O)NC(C)C)CCC2(C)C=CC1=O` (stereo not drawn): the TGI in assay [1], in assay [2], in assay [3], in assay [4], in assay [5] and in assay [6] was greater than 100 µM throughout. Further, the TGI in [7], in [8], in assay [9], in assay [10], in assay [11] and in assay [12] was greater than 100 µM in each case. Moreover, the TGI in assay [13], in [14], in assay [15] and in [16] was greater than 100 µM throughout.

As to `Cn1c(=O)c2nc(N3CCCCC3)cnc2n(C)c1=O`, the TGI in [17], in [1], in assay [3], in assay [5], in assay [6] and in assay [18] was greater than 100 µM in each case. For the same molecule, the TGI in assay [19], in assay [8], in assay [12], in [14], in [20] and in assay [15] was greater than 100 µM throughout. In assay [16], this molecule had a TGI greater than 100 µM.

As for `Cc1cc(N=Nc2ccc(N=Nc3c(O)c(S(=O)(=O)O)cc4cc(S(=O)(=O)O)ccc34)cc2C)ccc1N=Nc1ccc2cc(S(=O)(=O)O)cc(S(=O)(=O)O)c2c1`, the TGI in assay [1], in [2], in [3], in assay [4], in [5] and in assay [6] was greater than 100 µM throughout. Also, the TGI is greater than 100 µM in assay [7]; greater than 100 µM in assay [8]; greater than 73.1 µM in assay [9]; greater than 100 µM in [10]; greater than 100 µM in assay [11]; greater than 100 µM in assay [12]. Further, the TGI in assay [13], in [14], in assay [15] and in assay [16] was greater than 100 µM throughout.

For `COC(=O)NN1C(=O)C(=P(c2ccccc2)(c2ccccc2)c2ccccc2)C(C(=O)OC)=C1C`, the TGI in [17], in assay [2], in [4], in assay [5], in assay [18] and in assay [19] was greater than 100 µM throughout. Further, the TGI in [8], in assay [12], in assay [14], in assay [20], in [15] and in assay [16] was greater than 100 µM in each case.
